Assay results taken from patent US11638716B2, “Compounds, compositions, and methods for the treatment of disease” (F-star Therapeutics, Inc., priority 2017, dated 2023).

Experiments:
wt-mSTING = molecular target: T1, wt-mSTING (Mus musculus, UniProt Q3TBT3); experiment: IRF/NF-kB reporter cells, wt-mSTING; assay type: cell-based; details: 20 hours
T1 construct: endogenous in cells
T1 sequence (Q3TBT3 1-378): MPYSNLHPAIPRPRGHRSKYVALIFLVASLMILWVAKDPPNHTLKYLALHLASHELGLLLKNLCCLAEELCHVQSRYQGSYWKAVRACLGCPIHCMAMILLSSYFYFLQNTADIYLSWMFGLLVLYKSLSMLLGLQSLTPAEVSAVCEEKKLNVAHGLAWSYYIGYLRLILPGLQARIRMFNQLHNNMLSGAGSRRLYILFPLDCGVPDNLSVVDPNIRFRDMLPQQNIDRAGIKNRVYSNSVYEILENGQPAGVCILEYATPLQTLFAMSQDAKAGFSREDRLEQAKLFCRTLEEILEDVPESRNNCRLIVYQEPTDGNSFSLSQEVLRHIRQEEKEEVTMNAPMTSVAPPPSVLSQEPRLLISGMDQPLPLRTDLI
Method: (§1) FIG. 22 depicts cells stably expressing both or either one of the reporters to measure IRF and NF-kB activity were treated with a range of concentrations of compound 2 or DMSO control for 20 hours. IRF activity was assessed using QUANTI-luc to measure levels of Lucia and NF-kB activity was determined by measure SEAP levels at 620-655 nm. % induction was calculated from fold change in luminescence/absorbance compared to DMSO treated sample. EC50 values are generated by curve fit in Xlfit.
as §1, with “FIG. 24” for “FIG. 22”, “compound 3” for “compound 2”
as §1, with “FIG. 27” for “FIG. 22”, “compound 4” for “compound 2”
(§2) Cells grown in complete media were treated with various concentrations of a compound of the disclosure or DMSO control. […] After 20 h incubation, IRF activity was assessed using QUANTI-luc to measure levels of Lucia and NF-kB activity was determined by measure SEAP levels at 620-655 nm. % induction was calculated from fold change in luminescence/absorbance compared to DMSO treated sample. […]

[1] = molecular target: T2, R71H-G230A-R293Q (HAQ) variant of hSTING (Homo sapiens, UniProt Q86WV6, G230A/H232R/R293Q/R71H); experiment: IRF/NF-kB reporter cells, STING HAQ variant; assay type: cell-based; details: 20 hours
T2 construct: THP1-Dual-WT cells express STING-HAQ variant; endogenous in cells; host or cells: THP1-Dual-WT cells
T2 sequence (Q86WV6 whole entry R71H/G230A/H232R/R293Q): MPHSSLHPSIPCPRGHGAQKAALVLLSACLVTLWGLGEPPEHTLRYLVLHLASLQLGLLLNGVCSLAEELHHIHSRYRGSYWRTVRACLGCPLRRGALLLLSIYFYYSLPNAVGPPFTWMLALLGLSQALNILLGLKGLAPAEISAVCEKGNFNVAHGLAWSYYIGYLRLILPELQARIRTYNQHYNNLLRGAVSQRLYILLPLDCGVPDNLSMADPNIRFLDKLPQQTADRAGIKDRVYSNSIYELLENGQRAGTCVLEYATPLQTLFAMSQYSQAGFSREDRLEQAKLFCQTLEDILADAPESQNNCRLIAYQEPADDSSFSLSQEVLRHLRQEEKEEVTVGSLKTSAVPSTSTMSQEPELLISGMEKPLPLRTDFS
Method: as §1
as §1, with “FIG. 24” for “FIG. 22”, “compound 3” for “compound 2”
as §1, with “FIG. 27” for “FIG. 22”, “compound 4” for “compound 2”
as §2

NF-κβ = experiment: In vitro induction of NF-κβ in THP1 dual cells (SEAP reporter); assay type: cell-based
Method: Example 2. In Vitro Induction of IRF and NF-κβ in THP1 Cells
THP1 dual cells grown in complete media were treated with various concentrations of a compound of the present disclosure or DMSO control. Dual cells carry both secreted embryonic alkaline phosphatase (SEAP) reporter gene under the control of an IFN-β minimal promoter fused to five copies of the NF-kB consensus transcriptional response element to measure NF-kB activity and Lucia reporter gene under the control of an ISG54 minimal promoter to measure IRF activity. After 20 h incubation, IRF activity was assessed using QUANTI-luc to measure levels of Lucia and NF-kB activity was determined by measure SEAP levels at 620-655 nm. % induction was calculated from fold change in luminescence/absorbance compared to DMSO treated sample. […] EC50 values were generated by curve fit in Xlfit.
(§3) Cells grown in complete media were treated with various concentrations of a compound of the disclosure or DMSO control. Dual cells carry both secreted embryonic alkaline phosphatase (SEAP) reporter gene under the control of an IFN-β minimal promoter fused to five copies of the NF-kB consensus transcriptional response element to measure NF-kB activity and Lucia reporter gene under the control of an ISG54 minimal promoter to measure IRF activity. After 20 h incubation, IRF activity was assessed using QUANTI-luc to measure levels of Lucia and NF-kB activity was determined by measure SEAP levels at 620-655 nm. % induction was calculated from fold change in luminescence/absorbance compared to DMSO treated sample. EC50 values are generated by curve fit in Xlfit.

[2] = test system: peripheral blood mononuclear cells (PBMCs); experiment: IFNb and TNFa secretion by freshly isolated PBMCs (ELISA); assay type: cell-based, human; details: 20 hours
Method: (§4) FIG. 25 depicts freshly isolated peripheral blood mononuclear cells (PBMCs) treated with a range of concentrations of compound 3 or DMSO control for 20 hours. Supernatants were collected to measure IFNb and TNFa secretion by Verikine-Human IFN beta Serum ELISA kit and Human TNF Alpha ELISA kit respectively. The amount of cytokine releases into supernatant was calculated by a standard curve. Compound 3 induces IFNβ and TNFα secretion in PBMCs after treatment.
as §4, with “29” for “25”, “PBMCs that were” for “peripheral blood mononuclear cells (PBMCs)”, “4” for “3”

STING KO cells = experiment: IRF and NF-kB reporter activity in STING KO cells; assay type: cell-based; details: 20 hours
Method: as §1, with “FIG. 21” for “FIG. 22”, “compound 1” for “compound 2”
as §1
as §1, with “FIG. 24” for “FIG. 22”, “compound 3” for “compound 2”
as §1, with “FIG. 27” for “FIG. 22”, “compound 4” for “compound 2”
as §3

RIG-I = experiment: IRF/NF-kB reporter cells testing the role of RIG-I; assay type: cell-based; details: 20 hours
Method: as §1, with “FIG. 28” for “FIG. 22”, “compound 4” for “compound 2”

Compound | activity against wt-mSTING (wt-mSTING) | activity against R71H-G230A-R293Q (HAQ) variant of hSTING [1] | EC50 (NF-κβ; Homo sapiens, THP-1, 20 h incubation) | IFNβ secretion [2] | TNFα secretion [2] | IRF activity in STING KO cells (STING KO cells) | NF-κβ in STING KO cells (STING KO cells) | involvement of RIG-I in the mechanism of action (RIG-I) | EC50 (NF-κβ; 20 h incubation)
N.N.Nc1ncnc2c1ncn2[C@@H]1O[C@@H]2COP(=O)(S)O[C@@H]3[C@H](F)[C@@H](COP(=O)(O)O[C@H]2[C@H]1F)O[C@H]3n1ccc(=O)[nH]c1=O (stereo partly drawn) [Compound 3] | possess activity | possess activity | > 2000 nM | induces | induces | did not induce | did not induce |  | 
CCCCCCCCCCOc1ccc(C(=O)Oc2ccc(CSP3(=O)OC[C@H]4O[C@@H](n5cnc6c(N)ncnc65)[C@H](F)[C@@H]4OP(=O)(O)OC[C@H]4O[C@@H](n5ccc(=O)[nH]c5=O)[C@H](O3)[C@@H]4F)cc2)cc1 (stereo partly drawn) [Compound 4] | possess activity | possess activity |  | induces | induces | did not induce | did not induce | not implicated | < 50 nM
